{"source": "patent EP0943336A1", "about": "“PEPTIDE-CONTAINING PHARMACEUTICAL COMPOSITIONS FOR ORAL ADMINISTRATION” (DOTT RESEARCH LABORATORY, priority 1996, dated 1999)", "key": {"[1]": {"assay": "Absorption after oral administration of buserelin composition (blood buserelin level, direct method)", "format": "in vivo, cynomolgus monkeys", "details": "calcium carbonate carrier, enteric capsules; for level at 2 h / level at 2.5 h: cynomolgus monkey, blood, po; for level at 2 h: 120 min after oral dose; for level at 2.5 h: 150 min after oral dose", "excerpt": "The particle diameter of calcium carbonate as the carrier was 40 to 45 µm."}, "[2]": {"assay": "Absorption after oral administration of PTH (1-34) composition with diclofenac (blood PTH (1-34) level, ELISA)", "format": "in vivo, cynomolgus monkeys", "details": "10 mg diclofenac added to PTH (1-34)/magnesium oxide composition", "excerpt": "(§1) Then, the resultant mixture was filled in enteric coating capsules."}, "[3]": {"parameters": "species or system cynomolgus monkeys", "details": "cynomolgus monkey, in vivo", "excerpt": "as §1"}, "[4]": {"details": "cynomolgus monkey, in vivo", "description": "Both components were mixed to make a composition in which the PTH (1-34) content was 600 µg/200 mg, and the resultant mixture was filled in enteric coating capsules.\nThe particle diameter of calcium carbonate, AW ceramics, and magnesium oxide used as the carrier was 40 to 45 µm.\nA single oral dose of the above-mentioned composition was administered to two cynomolgus monkeys weighing 5 kg. Their blood samples were collected before dosing, and at 30, 60, 90, 120, 180, 240, 300, and 360 minutes after dosing to determine the blood PTH (1-34) level by using ELISA with a 1-34PTH2 antibody."}}, "note": "Like-named read-outs stand apart in the source and are kept apart here."}
{"molecule": "CCNC(=O)[C@@H]1CCCN1C(=O)[C@H](CCCNC(=N)N)NC(=O)[C@H](CC(C)C)NC(=O)[C@@H](COC(C)(C)C)NC(=O)[C@H](Cc1ccc(O)cc1)NC(=O)[C@H](CO)NC(=O)[C@H](Cc1c[nH]c2ccccc12)NC(=O)[C@H](Cc1cnc[nH]1)NC(=O)[C@@H]1CCC(=O)N1", "note": "[buserelin, Buserelin]", "values": [{"measurement": "Blood buserelin level", "setting": "[1]; 30 min after oral dose, Animal No. 1", "result": "30 or less pg/ml"}, {"measurement": "Blood buserelin level", "setting": "[1]; 30 min after oral dose, Animal No. 2", "result": "30 or less pg/ml"}, {"measurement": "Blood buserelin level", "setting": "[1]; 30 min after oral dose, Animal No. 3", "result": "30 or less pg/ml"}, {"measurement": "Blood buserelin level", "setting": "[1]; 45 min after oral dose, Animal No. 1", "result": "30 or less pg/ml"}, {"measurement": "Blood buserelin level", "setting": "[1]; 45 min after oral dose, Animal No. 2", "result": "30 or less pg/ml"}, {"measurement": "Blood buserelin level", "setting": "[1]; 45 min after oral dose, Animal No. 3", "result": "30 or less pg/ml"}, {"measurement": "Blood buserelin level", "setting": "[1]; 60 min after oral dose, Animal No. 1", "result": "30 or less pg/ml"}, {"measurement": "Blood buserelin level", "setting": "[1]; 60 min after oral dose, Animal No. 2", "result": "30 or less pg/ml"}, {"measurement": "Blood buserelin level", "setting": "[1]; 60 min after oral dose, Animal No. 3", "result": "30 or less pg/ml"}, {"measurement": "Blood buserelin level", "setting": "[1]; Before dosing, Animal No. 1, oral", "result": "30 or less pg/ml"}, {"measurement": "Blood buserelin level", "setting": "[1]; Before dosing, Animal No. 2, oral", "result": "30 or less pg/ml"}, {"measurement": "Blood buserelin level", "setting": "[1]; Before dosing, Animal No. 3, oral", "result": "30 or less pg/ml"}, {"measurement": "level at 2 h", "setting": "[1]; Animal No. 1", "result": 0.066, "unit": "ng/mL"}, {"measurement": "level at 2 h", "setting": "[1]; Animal No. 2", "result": 0.107, "unit": "ng/mL"}, {"measurement": "level at 2 h", "setting": "[1]; Animal No. 3", "result": 0.053, "unit": "ng/mL"}, {"measurement": "level at 2.5 h", "setting": "[1]; Animal No. 1", "result": 0.081, "unit": "ng/mL"}, {"measurement": "level at 2.5 h", "setting": "[1]; Animal No. 2", "result": 0.193, "unit": "ng/mL"}, {"measurement": "level at 2.5 h", "setting": "[1]; Animal No. 3", "result": 0.07, "unit": "ng/mL"}, {"measurement": "absorption after oral administration (in words)", "setting": "[1]", "result": "well absorbed"}]}
{"molecule": "O=C(O)Cc1ccccc1Nc1c(Cl)cccc1Cl", "note": "[diclofenac]", "values": [{"measurement": "effect of addition on absorption of PTH (1-34) (in words)", "setting": "[2]", "result": "enhanced its absorption"}]}
{"molecule": "PTH (1-34)", "values": [{"measurement": "absorption after oral administration (in words)", "setting": "[3]", "result": "well absorbed"}, {"measurement": "absorption after oral administration (in words)", "setting": "[4]", "result": "well absorbed"}]}
